Data reported in US6914045B2, “Glycopeptide antibiotics” (Wyeth Holdings Corporation, priority 2001, dated 2005).
In brackets after ≈: the same amount, converted by molar mass.

How the values were obtained:
Test in all cases: in vitro antibacterial evaluation, MIC by broth dilution
Format in all cases: cell-based
[1] = test system: Escherichia coli; details: 18 hours at 35° C.
[2] = test system: Staphylococcus sp.; details: broth dilution, 18 hours at 35° C.; for MIC Staphylococcus aureus (GC 1131): strain GC 1131; for MIC Staphylococcus aureus (ATCC 29213): strain ATCC 29213; for MIC Staphylococcus aureus (GC 3051): strain GC 3051; for MIC Staphylococcus aureus (GC 3053): strain GC 3053; for MIC Staphylococcus aureus (GC 4541): strain GC 4541; for MIC Staphylococcus aureus (GC 4542): strain GC 4542; for MIC Staphylococcus aureus-SMITH (GC 4543): strain GC 4543; for MIC Staphylococcus aureus (GC 4544): strain GC 4544; for MIC Staphylococcus aureus (GC 4545): strain GC 4545; for MIC Staphylococcus haemolyticus (GC 4546): strain GC 4546; for MIC Coagulase Negative Staphylococcus (GC 4547): strain GC 4547; for MIC Coagulase Negative Staphylococcus (GC 4548): strain GC 4548; for MIC Coagulase Negative Staphylococcus (GC 4549): strain GC 4549; for MIC Coagulase Negative Staphylococcus (GC 4551): strain GC 4551
How it was run: (§1)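 MIC = lowest antibiotic concentration preventing visible growth; inoculum 5×10^5 CFU/mL; drug range 64-0.06 μg/mL; Muller-Hinton II […]; NCCLS M7-A2 guidance.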

[3] = test system: Streptococcus sp.; details: broth dilution, 18 hours at 35° C.
How it was run: as §1

[4] = test system: Enterococcus sp.; details: broth dilution, 18 hours at 35° C.
How it was run: as §1

[5] = inoculum 5×10^5 CFU/mL, strain ATCC 6301
[6] = inoculum 5×10^5 CFU/mL, strain GC 1894
[7] = inoculum 5×10^5 CFU/mL, strain GC 4563
[8] = inoculum 5×10^5 CFU/mL, strain GC 4564
[9] = inoculum 5×10^5 CFU/mL, strain GC 4565
[10] = inoculum 5×10^5 CFU/mL, strain ATCC 29212
[11] = inoculum 5×10^5 CFU/mL, strain GC 2242
[12] = inoculum 5×10^5 CFU/mL, strain GC 2243
[13] = inoculum 5×10^5 CFU/mL, strain GC 2691
[14] = inoculum 5×10^5 CFU/mL, strain GC 3059
[15] = inoculum 5×10^5 CFU/mL, strain GC 4552
[16] = inoculum 5×10^5 CFU/mL, strain GC 4553
[17] = inoculum 5×10^5 CFU/mL, strain GC 4554
[18] = inoculum 5×10^5 CFU/mL, strain GC 4556
[19] = inoculum 5×10^5 CFU/mL, strain GC 4557
[20] = inoculum 5×10^5 CFU/mL, strain GC 4558
[21] = inoculum 5×10^5 CFU/mL, strain GC 6189

Cc1ccc(Oc2cccc(C3OCC4OC(OC5C(CO)OC(Oc6ccc(CC7NC(=O)C(C(C)c8ccccc8)NC(=O)CNC(=O)C(CO)NC(=O)C(C(O)C8CNC(=N)N8C8OC(CO)C(O)C(O)C8O)NC(=O)C(C(O)C8CNC(=N)N8)NC7=O)cc6I)C(O)C5O)C(O)C(O)C4O3)c2)cc1 (stereo not drawn) [Example 197]
MIC Escherichia coli (ATCC 25922) [1]: 32 µg/mL (≈ 19.8 µM)
MIC Escherichia coli (GC 4559) [1]: 64 µg/mL (≈ 39.6 µM)
MIC Escherichia coli (GC 4560) [1]: 16 µg/mL (≈ 9.9 µM)
MIC Staphylococcus aureus (GC 1131) ([2]; inoculum 5×10^5 CFU/mL): 16 µg/mL (≈ 9.9 µM)
MIC Staphylococcus aureus (ATCC 29213) [2]: 32 µg/mL (≈ 19.8 µM)
MIC Staphylococcus aureus (GC 1131) [2]: 16 µg/mL (≈ 9.9 µM)
MIC Staphylococcus aureus (GC 3051) [2]: 64 µg/mL (≈ 39.6 µM)
MIC Staphylococcus aureus (GC 3053) [2]: 64 µg/mL (≈ 39.6 µM)
MIC Staphylococcus aureus (GC 4541) [2]: 16 µg/mL (≈ 9.9 µM)
MIC Staphylococcus aureus (GC 4542) [2]: 64 µg/mL (≈ 39.6 µM)
MIC Staphylococcus aureus-SMITH (GC 4543) [2]: 16 µg/mL (≈ 9.9 µM)
MIC Staphylococcus aureus (GC 4544) [2]: 32 µg/mL (≈ 19.8 µM)
MIC Staphylococcus aureus (GC 4545) [2]: 32 µg/mL (≈ 19.8 µM)
MIC Staphylococcus haemolyticus (GC 4546) [2]: 32 µg/mL (≈ 19.8 µM)
MIC Coagulase Negative Staphylococcus (GC 4547) [2]: 32 µg/mL (≈ 19.8 µM)
MIC Coagulase Negative Staphylococcus (GC 4548) [2]: 8 µg/mL (≈ 4.95 µM)
MIC Coagulase Negative Staphylococcus (GC 4549) [2]: 8 µg/mL (≈ 4.95 µM)
MIC Coagulase Negative Staphylococcus (GC 4551) [2]: 16 µg/mL (≈ 9.9 µM)
MIC Coagulase Negative Staphylococcus (GC 6257) ([2]; strain GC 6257): 4 µg/mL (≈ 2.48 µM)
MIC Streptococcus agalactiae (GC 4564) [3]: 16 µg/mL (≈ 9.9 µM)
MIC Streptococcus pneumoniae (ATCC 6301) [3]: 4 µg/mL (≈ 2.48 µM)
MIC Streptococcus pneumoniae (GC 1894) [3]: 8 µg/mL (≈ 4.95 µM)
MIC Streptococcus pneumoniae (GC 4565) [3]: 8 µg/mL (≈ 4.95 µM)
MIC Streptococcus pyogenes (GC 4563) [3]: 16 µg/mL (≈ 9.9 µM)
MIC Streptococcus pneumoniae (ATCC 6301) [3, 5]: 4 µg/mL (≈ 2.48 µM)
MIC Streptococcus pneumoniae (GC 1894) [3, 6]: 8 µg/mL (≈ 4.95 µM)
MIC Streptococcus pyogenes (GC 4563) [3, 7]: 16 µg/mL (≈ 9.9 µM)
MIC Streptococcus agalactiae (GC 4564) [3, 8]: 16 µg/mL (≈ 9.9 µM)
MIC Streptococcus pneumoniae (GC 4565) [3, 9]: 8 µg/mL (≈ 4.95 µM)
MIC Enterococcus avium (GC 4558) [4]: 16 µg/mL (≈ 9.9 µM)
MIC Enterococcus faecalis (ATCC 29212) [4]: >64 µg/mL
MIC Enterococcus faecalis (GC 2242) [4]: >64 µg/mL
MIC Enterococcus faecalis (GC 2691) [4]: >64 µg/mL
MIC Enterococcus faecalis (GC 3059) [4]: >64 µg/mL
MIC Enterococcus faecalis (GC 4552) [4]: >64 µg/mL
MIC Enterococcus faecalis (GC 4553) [4]: 64 µg/mL (≈ 39.6 µM)
MIC Enterococcus faecalis (GC 4554) [4]: >64 µg/mL
MIC Enterococcus faecalis (GC 6189) [4]: 64 µg/mL (≈ 39.6 µM)
MIC Enterococcus faecium (GC 2243) [4]: 64 µg/mL (≈ 39.6 µM)
MIC Enterococcus faecium (GC 4556) [4]: >64 µg/mL
MIC Enterococcus faecium (GC 4557) [4]: 8 µg/mL (≈ 4.95 µM)
MIC Enterococcus faecalis (ATCC 29212) [4, 10]: >64 µg/mL
MIC Enterococcus faecalis (GC 2242) [4, 11]: >64 µg/mL
MIC Enterococcus faecium (GC 2243) [4, 12]: 64 µg/mL (≈ 39.6 µM)
MIC Enterococcus faecalis (GC 2691) [4, 13]: >64 µg/mL
MIC Enterococcus faecalis (GC 3059) [4, 14]: >64 µg/mL
MIC Enterococcus faecalis (GC 4552) [4, 15]: >64 µg/mL
MIC Enterococcus faecalis (GC 4553) [4, 16]: 64 µg/mL (≈ 39.6 µM)
MIC Enterococcus faecalis (GC 4554) [4, 17]: >64 µg/mL
MIC Enterococcus faecium (GC 4556) [4, 18]: >64 µg/mL
MIC Enterococcus faecium (GC 4557) [4, 19]: 8 µg/mL (≈ 4.95 µM)
MIC Enterococcus avium (GC 4558) [4, 20]: 16 µg/mL (≈ 9.9 µM)
MIC Enterococcus faecalis (GC 6189) [4, 21]: 64 µg/mL (≈ 39.6 µM)

N=C1NCC(C(O)C2NC(=O)C(Cc3ccc(OC4OC(CO)C(OC5OC6COC(CCc7ccccc7)OC6C(O)C5O)C(O)C4O)cc3)NC(=O)C(CC3CCCCC3)NC(=O)CNC(=O)C(CO)NC(=O)C(C(O)C3CNC(=N)N3C3OC(CO)C(O)C(O)C3O)NC2=O)N1 (stereo not drawn) [Example 198]
MIC Escherichia coli (ATCC 25922) [1]: 32 µg/mL (≈ 22.8 µM)
MIC Escherichia coli (GC 4559) [1]: 32 µg/mL (≈ 22.8 µM)
MIC Escherichia coli (GC 4560) [1]: 1 µg/mL (≈ 0.713 µM)
MIC Staphylococcus aureus (GC 1131) ([2]; inoculum 5×10^5 CFU/mL): 1 µg/mL (≈ 0.713 µM)
MIC Staphylococcus aureus (ATCC 29213) [2]: 0.5 µg/mL (≈ 0.356 µM)
MIC Staphylococcus aureus (GC 1131) [2]: 1 µg/mL (≈ 0.713 µM)
MIC Staphylococcus aureus (GC 3051) [2]: 0.5 µg/mL (≈ 0.356 µM)
MIC Staphylococcus aureus (GC 3053) [2]: 0.5 µg/mL (≈ 0.356 µM)
MIC Staphylococcus aureus (GC 4541) [2]: 0.5 µg/mL (≈ 0.356 µM)
MIC Staphylococcus aureus (GC 4542) [2]: 0.25 µg/mL (≈ 0.178 µM)
MIC Staphylococcus aureus-SMITH (GC 4543) [2]: 0.5 µg/mL (≈ 0.356 µM)
MIC Staphylococcus aureus (GC 4544) [2]: 0.5 µg/mL (≈ 0.356 µM)
MIC Staphylococcus aureus (GC 4545) [2]: 0.5 µg/mL (≈ 0.356 µM)
MIC Staphylococcus haemolyticus (GC 4546) [2]: 0.5 µg/mL (≈ 0.356 µM)
MIC Coagulase Negative Staphylococcus (GC 4547) [2]: 1 µg/mL (≈ 0.713 µM)
MIC Coagulase Negative Staphylococcus (GC 4548) [2]: <0.12 µg/mL
MIC Coagulase Negative Staphylococcus (GC 4549) [2]: 0.5 µg/mL (≈ 0.356 µM)
MIC Coagulase Negative Staphylococcus (GC 4551) [2]: 0.5 µg/mL (≈ 0.356 µM)
MIC Streptococcus agalactiae (GC 4564) [3]: <0.12 µg/mL
MIC Streptococcus pneumoniae (ATCC 6301) [3]: <0.12 µg/mL
MIC Streptococcus pneumoniae (GC 1894) [3]: <0.12 µg/mL
MIC Streptococcus pneumoniae (GC 4565) [3]: <0.12 µg/mL
MIC Streptococcus pyogenes (GC 4563) [3]: <0.12 µg/mL
MIC Streptococcus pneumoniae (ATCC 6301) [3, 5]: <0.12 µg/mL
MIC Streptococcus pneumoniae (GC 1894) [3, 6]: <0.12 µg/mL
MIC Streptococcus pyogenes (GC 4563) [3, 7]: <0.12 µg/mL
MIC Streptococcus agalactiae (GC 4564) [3, 8]: <0.12 µg/mL
MIC Streptococcus pneumoniae (GC 4565) [3, 9]: <0.12 µg/mL
MIC Enterococcus avium (GC 4558) [4]: 1 µg/mL (≈ 0.713 µM)
MIC Enterococcus faecalis (ATCC 29212) [4]: 1 µg/mL (≈ 0.713 µM)
MIC Enterococcus faecalis (GC 2242) [4]: 1 µg/mL (≈ 0.713 µM)
MIC Enterococcus faecalis (GC 2691) [4]: 1 µg/mL (≈ 0.713 µM)
MIC Enterococcus faecalis (GC 3059) [4]: 1 µg/mL (≈ 0.713 µM)
MIC Enterococcus faecalis (GC 4552) [4]: 1 µg/mL (≈ 0.713 µM)
MIC Enterococcus faecalis (GC 4553) [4]: 1 µg/mL (≈ 0.713 µM)
MIC Enterococcus faecalis (GC 4554) [4]: 1 µg/mL (≈ 0.713 µM)
MIC Enterococcus faecalis (GC 6189) [4]: 1 µg/mL (≈ 0.713 µM)
MIC Enterococcus faecium (GC 2243) [4]: 1 µg/mL (≈ 0.713 µM)
MIC Enterococcus faecium (GC 4556) [4]: 1 µg/mL (≈ 0.713 µM)
MIC Enterococcus faecium (GC 4557) [4]: 1 µg/mL (≈ 0.713 µM)
MIC Enterococcus faecalis (ATCC 29212) [4, 10]: 1 µg/mL (≈ 0.713 µM)
MIC Enterococcus faecalis (GC 2242) [4, 11]: 1 µg/mL (≈ 0.713 µM)
MIC Enterococcus faecium (GC 2243) [4, 12]: 1 µg/mL (≈ 0.713 µM)
MIC Enterococcus faecalis (GC 2691) [4, 13]: 1 µg/mL (≈ 0.713 µM)
MIC Enterococcus faecalis (GC 3059) [4, 14]: 1 µg/mL (≈ 0.713 µM)
MIC Enterococcus faecalis (GC 4552) [4, 15]: 1 µg/mL (≈ 0.713 µM)
MIC Enterococcus faecalis (GC 4553) [4, 16]: 1 µg/mL (≈ 0.713 µM)
MIC Enterococcus faecalis (GC 4554) [4, 17]: 1 µg/mL (≈ 0.713 µM)
MIC Enterococcus faecium (GC 4556) [4, 18]: 1 µg/mL (≈ 0.713 µM)
MIC Enterococcus faecium (GC 4557) [4, 19]: 1 µg/mL (≈ 0.713 µM)
MIC Enterococcus avium (GC 4558) [4, 20]: 1 µg/mL (≈ 0.713 µM)
MIC Enterococcus faecalis (GC 6189) [4, 21]: 1 µg/mL (≈ 0.713 µM)
